In ChEMBL document CHEMBL4052642, “4-Methyl-6,7-dihydro-4H-triazolo[4,5-c]pyridine-Based P2X7 Receptor Antagonists: Optimization of Pharmacokinetic Properties Leading to the Identification of a Clinical Candidate” (J Med Chem, 2017):
Values after ≈ are worked out from the molar mass of the structure shown. Active and inactive are the calls of the source. The rule behind the calls is not given here.

Experiments:
[1] = Volume of distribution at steady state in Sprague-Dawley rat at 1 mg/kg, iv or 5 mg/kg, po by LC-MS/MS analysis; type: ADME, organism-based; conditions: in vivo, read-out: Vdss
[2] = Metabolic stability in cynomolgus monkey liver microsomes at 1 uM after 5 to 60 mins by LC-MS/MS analysis; type: ADME, Macaca fascicularis, microsome
P2X purinoceptor = P2X purinoceptor (Macaca mulatta, UniProt G7N604); assay: Antagonist activity at macaque P2X7 assessed as inhibition of BzATP-induced calcium flux preincubated for 30 mins followed by BzATP addition measured over 180 secs by FLIPR assay
Sequence of P2X purinoceptor (G7N604 whole entry): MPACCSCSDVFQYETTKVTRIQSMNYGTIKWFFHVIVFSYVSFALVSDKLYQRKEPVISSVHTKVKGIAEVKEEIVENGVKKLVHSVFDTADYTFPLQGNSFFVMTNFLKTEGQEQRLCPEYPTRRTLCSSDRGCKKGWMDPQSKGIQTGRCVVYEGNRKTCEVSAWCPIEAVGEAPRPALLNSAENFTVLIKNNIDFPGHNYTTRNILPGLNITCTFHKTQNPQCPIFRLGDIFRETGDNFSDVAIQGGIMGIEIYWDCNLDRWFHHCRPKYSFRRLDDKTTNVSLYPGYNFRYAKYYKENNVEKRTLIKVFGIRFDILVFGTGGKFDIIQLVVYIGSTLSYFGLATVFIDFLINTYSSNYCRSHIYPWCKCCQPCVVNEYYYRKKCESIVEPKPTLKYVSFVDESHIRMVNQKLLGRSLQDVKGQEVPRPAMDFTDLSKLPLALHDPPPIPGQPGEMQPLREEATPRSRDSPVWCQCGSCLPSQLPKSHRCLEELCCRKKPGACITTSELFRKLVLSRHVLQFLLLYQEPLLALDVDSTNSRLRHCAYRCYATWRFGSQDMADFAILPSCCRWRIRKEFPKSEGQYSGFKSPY

[3] = Half life in cynomolgus monkey at 1 mg/kg, iv by LC-MS/MS analysis; type: ADME, organism-based, Macaca fascicularis; conditions: in vivo
Hepatocyte = assay: Metabolic stability in hepatocytes (unknown origin); type: ADME, cell-based
[4] = Volume of distribution at steady state in beagle dog at 0.5 mg/kg, iv or 2.5 mg/kg, po by LC-MS/MS analysis; type: ADME, organism-based, Canis lupus familiaris; conditions: in vivo, read-out: Vdss
Liver [5] = assay: Metabolic stability in rat liver microsomes at 1 uM after 5 to 60 mins by LC-MS/MS analysis; type: ADME, microsome
[6] = Half life in beagle dog at 0.5 mg/kg, iv by LC-MS/MS analysis; type: ADME, organism-based, Canis lupus familiaris; conditions: in vivo
Cynomolgus monkey = assay: Oral bioavailability in cynomolgus monkey at 5 mg/kg by LC-MS/MS analysis; type: ADME, organism-based, Macaca fascicularis; conditions: in vivo
[7] = Drug uptake in dog brain at 3 mg/kg, po after 168 hrs; type: ADME, organism-based, Canis lupus familiaris; conditions: read-out: Drug uptake
Rattus norvegicus [8] = assay: Ex vivo receptor occupancy at P2X7 in po dosed Sprague-Dawley rat brain after 60 mins by autoradiography; type: functional
Canis familiaris [9] = assay: Toxicity in dog assessed as change in serum chemistry at 30 to 300 mg/kg administered via oral gavage on day 1 and day 5; type: organism-based, Canis lupus familiaris; conditions: in vivo
[10] = Oral bioavailability in Sprague-Dawley rat at 5 mg/kg by LC-MS/MS analysis; type: ADME, organism-based; conditions: in vivo
[11] = Clearance in cynomolgus monkey at 1 mg/kg, iv or 5 mg/kg, po by LC-MS/MS analysis; type: ADME, organism-based, Macaca fascicularis; conditions: in vivo
[12] = Clearance in Sprague-Dawley rat at 1 mg/kg, iv or 5 mg/kg, po by LC-MS/MS analysis; type: ADME, organism-based; conditions: in vivo
Liver [13] = assay: Metabolic stability in human liver microsomes at 1 uM after 5 to 60 mins by LC-MS/MS analysis; type: ADME, microsome
Canis familiaris [14] = assay: Ex vivo receptor occupancy at P2X7 in dog brain at 3 mg/kg, po after 96 hrs by autoradiography; type: functional, organism-based; conditions: Canis lupus familiaris
[15] = Apparent permeability across basolateral to apical side in human Caco2 cells; type: ADME, cell-based; conditions: Caco-2
Rattus norvegicus [16] = assay: Drug uptake in rat at 62.5 to 250 mg/kg administered via oral gavage on day 1 and day 4; type: ADME, organism-based; conditions: in vivo
[17] = Apparent permeability across apical to basolateral side in human Caco2 cells; type: ADME, cell-based; conditions: Caco-2
[18] = Volume of distribution at steady state in cynomolgus monkey at 1 mg/kg, iv or 5 mg/kg, po by LC-MS/MS analysis; type: ADME, organism-based, Macaca fascicularis; conditions: in vivo, read-out: Vdss
[19] = Solubility of compound in phosphate buffer at pH 2 after 3 days; type: physicochemical
[20] = biological target: P2X purinoceptor 3 (Homo sapiens) (UniProt P56373); assay: Antagonist activity at P2X3 (unknown origin) assessed as inhibition of BzATP-induced calcium flux up to 10 uM preincubated for 30 mins followed by BzATP addition measured over 180 secs by FLIPR assay
Sequence of P2X purinoceptor 3 (Homo sapiens) (P56373 whole entry): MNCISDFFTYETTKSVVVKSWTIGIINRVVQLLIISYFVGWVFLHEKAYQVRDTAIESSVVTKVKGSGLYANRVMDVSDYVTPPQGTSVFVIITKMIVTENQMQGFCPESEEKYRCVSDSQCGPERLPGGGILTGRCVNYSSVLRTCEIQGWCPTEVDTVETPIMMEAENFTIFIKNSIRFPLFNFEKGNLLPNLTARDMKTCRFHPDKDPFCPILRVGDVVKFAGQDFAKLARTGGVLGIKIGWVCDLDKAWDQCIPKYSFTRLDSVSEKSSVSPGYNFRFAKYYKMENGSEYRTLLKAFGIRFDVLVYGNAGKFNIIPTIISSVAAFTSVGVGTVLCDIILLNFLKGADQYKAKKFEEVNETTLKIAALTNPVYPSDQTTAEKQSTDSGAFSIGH

Liver [21] = assay: Metabolic stability in dog liver microsomes at 1 uM after 5 to 60 mins by LC-MS/MS analysis; type: ADME, Canis lupus familiaris, microsome
Canis familiaris [22] = assay: Toxicity in dog at 30 to 300 mg/kg administered via oral gavage on day 1 and day 5 by histopathological method; type: organism-based, Canis lupus familiaris; conditions: in vivo
[23] = Protein binding in rat plasma at 1 uM after 6 hrs by equilibrium dialysis method; type: ADME, cell-free; conditions: read-out: PPB (converted)
[24] = Protein binding in human plasma at 1 uM after 6 hrs by equilibrium dialysis method; type: ADME, cell-free; conditions: read-out: PPB (converted)
Canis familiaris [25] = assay: Oral bioavailability in beagle dog at 2.5 mg/kg by LC-MS/MS analysis; type: ADME, organism-based, Canis lupus familiaris; conditions: in vivo
[26] = Antagonist activity at dog P2X7 assessed as inhibition of BzATP-induced calcium flux preincubated for 30 mins followed by BzATP addition measured over 180 secs by FLIPR assay; set-up: species or system Canis lupus familiaris
Rattus norvegicus [27] = assay: Ex vivo receptor occupancy at P2X7 in po dosed Sprague-Dawley rat brain assessed as plasma concentration required to achieve EC50 after 60 mins by autoradiography; type: functional, organism-based
[28] = biological target: P2X purinoceptor 7 (Homo sapiens) (UniProt Q99572); conditions: 100 pM
Sequence of P2X purinoceptor 7 (Homo sapiens) (Q99572 whole entry): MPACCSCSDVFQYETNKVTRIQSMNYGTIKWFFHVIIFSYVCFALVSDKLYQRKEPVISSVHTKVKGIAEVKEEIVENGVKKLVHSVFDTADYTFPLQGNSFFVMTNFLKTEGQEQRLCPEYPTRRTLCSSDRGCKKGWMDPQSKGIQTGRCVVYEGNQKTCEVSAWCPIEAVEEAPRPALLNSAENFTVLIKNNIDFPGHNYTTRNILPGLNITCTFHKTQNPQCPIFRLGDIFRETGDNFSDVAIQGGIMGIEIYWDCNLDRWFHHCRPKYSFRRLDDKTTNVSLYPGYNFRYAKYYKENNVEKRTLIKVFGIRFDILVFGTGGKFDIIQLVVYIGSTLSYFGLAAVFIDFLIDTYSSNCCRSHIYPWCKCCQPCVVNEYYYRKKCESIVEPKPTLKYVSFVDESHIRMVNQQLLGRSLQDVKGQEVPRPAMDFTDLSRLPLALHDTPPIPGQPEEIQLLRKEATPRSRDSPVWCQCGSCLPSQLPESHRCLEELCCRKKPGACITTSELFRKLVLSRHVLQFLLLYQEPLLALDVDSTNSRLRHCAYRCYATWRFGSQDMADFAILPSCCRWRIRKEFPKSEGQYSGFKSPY
Description: Displacement of [3H]-(6S)-7-[[2-chloro-3-(trifluoromethyl)phenyl]methyl]-6-methyl-3-pyrimidin-2-yl-5,6dihydro[1,2,4]triazolo[4,3-a]pyrazin-8-one from P2X7 in human superior frontal gyrus at 100 pM to 10 uM

[29] = Drug uptake in dog brain at 3 mg/kg, po after 96 hrs; type: ADME, organism-based, Canis lupus familiaris; conditions: read-out: Drug uptake
Rattus norvegicus [30] = assay: Inhibition of Bz-ATP-induced IL-1beta release in po dosed Sprague-Dawley rat hippocampus preincubated for 1 hr followed by Bz-ATP challenge measured after 2 hrs by microdialysis method; type: functional, organism-based
Rattus norvegicus [31] = assay: Toxicity in rat at 62.5 to 250 mg/kg administered via oral gavage on day 1 and day 4; type: organism-based; conditions: in vivo
Homo sapiens = species: Homo sapiens; assay: Toxicity in human at 0.5 to 600 mg
Canis familiaris [32] = assay: Drug uptake in dog at 30 to 300 mg/kg administered via oral gavage on day 1 and day 5; type: ADME, organism-based, Canis lupus familiaris; conditions: in vivo
Cytochrome P450 2C8 = biological target: T1, Cytochrome P450 2C8 (Homo sapiens, UniProt P10632); assay: Inhibition of CYP2C8 in human liver microsomes using paclitaxel as substrate after 15 mins by LC-MS/MS analysis; type: ADME
T1 sequence (P10632 whole entry): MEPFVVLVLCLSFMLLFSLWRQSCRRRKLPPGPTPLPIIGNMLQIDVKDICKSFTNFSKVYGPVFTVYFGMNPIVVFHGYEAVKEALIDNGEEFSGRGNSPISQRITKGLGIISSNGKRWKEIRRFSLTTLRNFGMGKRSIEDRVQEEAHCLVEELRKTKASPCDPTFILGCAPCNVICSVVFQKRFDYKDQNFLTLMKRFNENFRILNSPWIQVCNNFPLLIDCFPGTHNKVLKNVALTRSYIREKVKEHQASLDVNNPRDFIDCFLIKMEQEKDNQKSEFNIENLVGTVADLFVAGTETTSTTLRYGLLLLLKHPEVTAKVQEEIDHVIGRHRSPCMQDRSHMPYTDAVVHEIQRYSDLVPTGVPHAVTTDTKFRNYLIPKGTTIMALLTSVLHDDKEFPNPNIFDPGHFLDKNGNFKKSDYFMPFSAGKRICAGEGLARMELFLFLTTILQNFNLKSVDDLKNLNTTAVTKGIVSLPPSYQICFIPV

Canis familiaris [33] = assay: Inhibition of LPS/Bz-ATP-induced IL-1beta release in dog blood at 3 mg/kg, po after 4 to 96 hrs; type: functional, organism-based; conditions: Canis lupus familiaris
Liver [34] = assay: Metabolic stability in mouse liver microsomes at 1 uM after 5 to 60 mins by LC-MS/MS analysis; type: ADME, microsome
Rattus norvegicus [35] = assay: Ex vivo receptor occupancy at P2X7 in Sprague-Dawley rat brain at 10 mg/kg, po after 24 hrs by autoradiography; type: functional

Vd [1]: 2.1 L/kg | Stability [2]: Stable | IC50 (P2X purinoceptor): 0.00794 µM | half-life [3]: 6.9 h | Stability (Hepatocyte): Stable | Vd [4]: 2.5 L/kg | Stability (Liver [5]): Stable | half-life [6]: 32 h | F (Cynomolgus monkey): 157% | concentration at 168 h [7]: ≤ 500 nM | Occ (Rattus norvegicus [8]): Dose-dependent effect | bioavailability [10]: 96% | clearance [11]: 4.4 mL/min/kg | clearance [12]: 2.9 mL/min/kg | Stability (Liver [13]): Stable | Papp B→A [15]: 48.8 ×10⁻⁶ cm/s | Drug uptake (Rattus norvegicus [16]): Active | Papp A→B [17]: 75.3 ×10⁻⁶ cm/s | Vd [18]: 2.1 L/kg | solubility at 72 h [19]: 38.7 µM (≈ 17.1 µg/mL) | inhibition [20]: inactive | Stability (Liver [21]): Stable | fraction unbound at 6 h, 1 µM [23]: 0.122 | fraction unbound at 6 h, 1 µM [24]: 0.112 | F (Canis familiaris [25]): 164% | pIC50 [26]: 7.9 | Cp (Rattus norvegicus [27]): 105 ng/mL | inhibition [28]: Dose-dependent effect | concentration at 96 h [29]: > 1000 nM | Drug uptake (Canis familiaris [32]): Active | IC50 (Cytochrome P450 2C8): 9.6 µM | Stability (Liver [34]): Stable
SMILES: C[C@@H]1c2nnn(-c3ncc(F)cn3)c2CCN1C(=O)c1cccc(C(F)(F)F)c1Cl [JNJ-54175446]
ED50 (Rattus norvegicus [8]; 1 h): 0.46 mg/kg | Activity (Canis familiaris [9]): Non-Toxic | Occ (Canis familiaris [14]): Active | Activity (Canis familiaris [22]): Non-Toxic | inhibition (Rattus norvegicus [30]): Dose-dependent effect | Activity (Rattus norvegicus [31]): Non-Toxic | Activity (Homo sapiens): Non-Toxic | inhibition (Canis familiaris [33]): Active | Occ (Rattus norvegicus [35]): >80%
